Series [1] can be described thus: Maximum flux through silicone membrane from water (diffusion cell, saturated donor suspension, 32 °C). As to the method:
The measurement of maximum flux through silicone was performed according to a literature procedure at 32 °C, except that the silicone membrane was in contact with the receptor for only 24 h to condition them. The receptor was a 7.1 pH phosphate buffer.
After the membranes were conditioned, the receptor phases were changed and the donor suspensions (first application, 1 mL) were applied; n = 3. The donor cells were sealed by Parafilm. Samples were taken from the receptor every 2–3 h after application. Following sample collection, the receptor phases were changed to ensure sink conditions, and the donor suspensions were either changed or had more solid/oil added to the existing suspension, depending upon the visible extent of depletion. After 4–5 sampling intervals, the donor suspensions were removed with methanol and the receptors were changed. The membranes were leached with methanol in the donor phase for 48–72 h with samples taken and receptor phases changed every 12–24 h to remove any residual phenol in the membrane.
(§1) The flux values of the first and second application were determined by UV absorption.

Details of series [2]: method as in PMID 22602, PMID 16982163. To be noted: cited from earlier work; for Exp. log JMHAQ: experimental maximum flux through human stratum corneum from water, Table 2; for Log JMHAQ: maximum flux through human stratum corneum from water, log value, Table 1.
Details of series [3]: method as in PMID 22602, PMID 16982163. The following applies: solubility in water, log value; cited from earlier work.
On the set-up of series [4]: method as in PMID 22602, PMID 16982163. The following applies: octanol:water partition coefficient; cited from earlier work.
Details of series [5]: method as in PMID 22602, PMID 16982163. The following applies: solubility in octanol, log value; cited from earlier work.
A short description of series [6]: Flux of standard solute theophylline through silicone from propylene glycol (membrane integrity check, second application). The following applies: each membrane after methanol leaching. The format is in vitro ADME. On the procedure:
as §1

On the set-up of series [7]: method as in PMID 18588972. To be noted: donor suspension in propylene glycol; cited from earlier work.
Where [8] appears, read: experimental maximum flux through silicone from water, Table 2.
Setting [9] is: maximum flux through silicone from water, log value, 32 °C, receptor pH 7.1 phosphate buffer, n = 3, Table 1.

Data on 6 compounds can be found in PMC3836618, “The Flux of Phenolic Compounds through Silicone Membranes” (Pharmaceutics, 2013).

As to `Cc1cc(O)ccc1Cl` [compound 1, 4-chloro-3-methyl], the “Exp. log JMPAQ” value in series [1] (not told) amounted to 1.01 μmole cm^−2 h^−1. Further, the “Log JMPAQ” value in series [1] (not told, pH 7.1) was determined as 1.01 μmole cm^−2 h^−1. Moreover, in series [2], the “Exp. log JMHAQ” value is 0.29 μmole cm^−2 h^−1 and the “Log JMHAQ” value was 0.29 μmole cm^−2 h^−1. Besides, the “Log SAQ” value in series [3] is reported as 1.55 μmole cm^−3. Moreover, the “Log KOCT:AQ” value in series [4] was 3.10. Further, in series [5], the “Log SOCT” value is given as 4.65 μmole cm^−3.
`Cc1cc(O)cc(C)c1Cl` [compound 2, 4-chloro-3,5-dimethylphenol]: the “Exp. log JMPAQ” value in series [1] (setting [8]) is −0.027 μmole cm^−2 h^−1. Moreover, the “Log JMPAQ” value in series [1] (setting [9]) is −0.027 μmole cm^−2 h^−1. In series [2], the “Exp. log JMHAQ” value is −0.95 μmole cm^−2 h^−1 and the “Log JMHAQ” value is −0.95 μmole cm^−2 h^−1. Also, the “Log SAQ” value in series [3] was 0.28 μmole cm^−3. In addition, in series [4], the “Log KOCT:AQ” value is 3.39. In addition, in series [5], the “Log SOCT” value is on record as 3.67 μmole cm^−3.
Regarding `Cc1ccc(O)cc1` [compound 4, 4-methyl], the “Exp. log JMPAQ” value in series [1] (setting [8]) worked out at 1.62 μmole cm^−2 h^−1. The “Log JMPAQ” value in series [1] (setting [9]) is given as 1.62 μmole cm^−2 h^−1. In addition, in series [2], the “Exp. log JMHAQ” value was 0.53 μmole cm^−2 h^−1 and the “Log JMHAQ” value is on record as 0.53 μmole cm^−2 h^−1. Further, the “Log SAQ” value in series [3] is given as 2.29 μmole cm^−3. Besides, in series [4], the “Log KOCT:AQ” value is recorded as 1.95. Moreover, the “Log SOCT” value in series [5] was 4.24 μmole cm^−3.
On to `Oc1ccc(Cl)cc1Cl` [compound 5, 2,4-dichloro], for which the “Exp. log JMPAQ” value in series [1] (not told) is 1.16 μmole cm^−2 h^−1. For the same compound, the “Log JMPAQ” value in series [1] (not told, pH 7.1) worked out at 1.16 μmole cm^−2 h^−1. In addition, in series [2], the “Exp. log JMHAQ” value is 0.27 μmole cm^−2 h^−1 and the “Log JMHAQ” value is 0.27 μmole cm^−2 h^−1. Moreover, the “Log SAQ” value in series [3] is 1.49 μmole cm^−3. Also, the “Log KOCT:AQ” value in series [4] is 3.08. Also, the “Log SOCT” value in series [5] is on record as 4.57 μmole cm^−3.
Regarding `Cc1cccc(O)c1` [compound 7, 3-methylphenol], the “Exp. log JMPAQ” value in series [1] (setting [8]) was 1.61 μmole cm^−2 h^−1. Further, the “Log JMPAQ” value in series [1] (setting [9]) worked out at 1.61 μmole cm^−2 h^−1. For the same compound, in series [2], the “Exp. log JMHAQ” value is recorded as 0.54 μmole cm^−2 h^−1 and the “Log JMHAQ” value is 0.54 μmole cm^−2 h^−1. Also, the “Log SAQ” value in series [3] is 2.36 μmole cm^−3. Moreover, the “Log KOCT:AQ” value in series [4] was 1.96. Besides, the “Log SOCT” value in series [5] is given as 4.32 μmole cm^−3.
Consider `Cn1c(=O)c2[nH]cnc2n(C)c1=O` [theophylline], for which the “log JMPPG (log flux of theophylline through silicone from PG)” value in series [6] is recorded as “within the standard deviation of the literature value”. Also, the “log JMPPG (log flux of theophylline through silicone from PG), literature value” in series [7] is reported as −2.68 ± 0.12 log units.
